# Measurements from patent US20230346889A9, “TREATMENT OF ACUTE HEART FAILURE” (AnaCardio R&D AB, priority 2019, published 2023).
# “Also recorded” adds a separate entry of the source.
# How the values were obtained:
# [1] = system: patients with advanced CHF and reduced EF; experiment: Trial echocardiography; format: in vivo, human
# Experimental: Echocardiography was performed by a technician blinded to treatment allocation and all echo images were analyzed and interpreted by one independent investigator blinded to treatment allocation and clinical history of the patients. Two dimensional images were recorded with a Vivid 7/E9 ultrasound system (GE, Horten, Norway) with a 3 MHz Doppler transducer. A detailed echocardiographic examination including dimensions, cardiac systolic and diastolic function, valve performance and systolic pulmonary artery pressure was performed at baseline (Table 5). A shorter protocol including left ventricular dimensions and function, stroke volume and cardiac output was used for comparison of changes over time (Table 9 and 10). Left ventricular end-systolic and end-diastolic volumes and left ventricular ejection fraction (LVEF) were measured using the modified biplane Simpson's method. LVEF was also measured using the Teichholz method. Because of missing data on LVEF by the Simpson's method due to low image quality, changes in LVEF over time was calculated using the Teichholz method. Left atrial volumes were calculated using the biplane area length method from the apical four- and two-chamber views and indexed to the body surface area. The E/e′ ratio was calculated using the peak E-wave velocity of the mitral inflow and the averaged of septal and lateral tissue Doppler recordings. Tricuspid annular peak systolic excursion (TAPSE) was assessed with M-mode echocardiography. Speckle tracking was used for left ventricular longitudinal strain. […] Stroke volume was derived from the left ventricular outflow tract (LVOT) area and the LVOT […] time integral (VTI) (LVOT area×LVOT VTI). Cardiac output was calculated as the echo derived stroke volume×heart rate.
# [2] = system: phosphorylation of serine 23-24 on troponin I; experiment: Cardiomyocyte protein immunoblotting of troponin I phosphorylation; format: cell-based, mouse; conditions: for troponin I serine 23-24 phosphorylation signal: 15 min treatment, vs placebo
# Experimental: Isolated cardiomyocytes were treated for 15 min in different conditions (Placebo, Ghrelin, D-Lys 3 GHS-R1a, D-Lys 3 GHS-R1a+Ghrelin). Thereafter cardiomyocytes were pelleted and homogenated. Protein lysates were separated by electrophoresis and transferred onto membranes. Membranes were incubated with primary antibody: rabbit phospho-troponin I (cardiac) ([…]) antibody (Cell Signaling #4004), mouse troponin 1 (Millipore MAB1691A). Then infrared-labelled secondary antibodies (IRDye 680 and IRDye 800, 1:5000, Licor) were used. Immunoreactive bands were analyzed using the Odyssey Infrared Imaging System. Band densities were quantified with Image J, normalized to GAPDH and final data expressed as fold increase compared to Placebo group.
# [3] = Plasma acyl ghrelin pharmacokinetics (custom ELISA); format: in vivo, human
# Experimental: In samples dedicated for ghrelin measurements a protease inhibitor cocktail was prepared, consisting of 5.5 μl 10 mM KR-62436 (DPP4 inhibitor) in DMSO and a SIGMAFAST® protease inhibitor tablet (both produced by Sigma-Aldrich Corp., St. Louis, Mo., USA) dissolved in 2100 μl of distilled water (50×stock). Blood samples were drawn using 6 mL EDTA plasma tubes, immediately put on ice and 160 μl of the 50×protease inhibitor cocktail was added. Tubes were vortexed for 10 seconds and centrifuged at 4° C., 10 min, 2500 relative centrifugal force (RCF, or g). The resulting supernatant (plasma) was then pipetted into Eppendorf tubes (450 μl each) and immediately frozen at −70° C. until analyzed.
# Plasma concentrations of active (acylated) ghrelin were assayed by a custom ELISA using electrochemiluminescence detection. Plasma samples were thawed and vortexed. They were then analyzed in duplicate on 96-well multispot plates (Meso Scale Diagnostics, Rockville, Md., USA) coated with capture antibodies against acyl-ghrelin according to manufacturer instructions. The Meso Scale Diagnostics Sector Imager 2400 was used to read the plates. The coefficients of variation (CV %) calculated from plasma concentrations after curve fitting were 9.3/3.5 (intra/inter-assay CV %). The lower limit of detection was 3.2 ng/L and upper limit was set at 10,000 ng/L.
structure (smiles),measurement,setting,value
CCCCCCCC(=O)OC[C@H](NC(=O)[C@H](CO)NC(=O)CN)C(=O)N[C@@H](Cc1ccccc1)C(=O)N[C@@H](CC(C)C)C(=O)N[C@@H](CO)C(=O)N1CCC[C@H]1C(=O)N[C@@H](CCC(=O)O)C(=O)N[C@@H](Cc1cnc[nH]1)C(=O)N[C@@H](CCC(N)=O)C(=O)N[C@@H](CCCNC(=N)N)C(=O)N[C@H](C(=O)N[C@@H](CCC(N)=O)C(=O)N[C@@H](CCC(N)=O)C(=O)N[C@@H](CCCNC(=N)N)C(=O)N[C@@H](CCCCN)C(=O)N[C@@H](CCC(=O)O)C(=O)N[C@@H](CO)C(=O)N[C@@H](CCCCN)C(=O)N[C@@H](CCCCN)C(=O)N1CCC[C@H]1C(=O)N1CCC[C@H]1C(=O)N[C@@H](C)C(=O)N[C@@H](CCCCN)C(=O)N[C@@H](CC(C)C)C(=O)N[C@@H](CCC(N)=O)C(=O)N1CCC[C@H]1C(=O)N[C@@H](CCCNC(=N)N)C(=O)O)C(C)C [Ghrelin],CO (echocardiography),[1]; 2-5 days FU,3.8 ± 1.3 L/min
same,E/e′,[1]; 2-5 days FU,16.2 ± 8.3 ratio
same,LVEDD,[1]; 2-5 days FU,66 ± 10 mm
same,LVEF,[1]; 2-5 days FU,28.5 ± 11.9%
same,LVESD,[1]; 2-5 days FU,57 ± 11 mm
same,SV (echocardiography),[1]; 2-5 days FU,52.5 ± 20.6 mL
same,TAPSE,[1]; 2-5 days FU,11.8 ± 6.0 mm
same,Strain,"[1]; 2-5 days FU, n = 12",10.4 ± 6.4%
same,CO (echocardiography),[1]; +30 min,4.1 ± 1.5 L/min
same,E/e′,[1]; +30 min,15.3 ± 6.6 ratio
same,LVEDD,[1]; +30 min,65 ± 9 mm
same,LVEF,[1]; +30 min,30.1 ± 11.2%
same,LVESD,[1]; +30 min,56 ± 11 mm
same,SV (echocardiography),[1]; +30 min,62.2 ± 23.8 mL
same,TAPSE,[1]; +30 min,14.1 ± 5.4 mm
same,Strain,"[1]; +30 min, n = 13",12.46 ± 4.1%
same,CO (echocardiography),[1]; BL,3.8 ± 1.5 L/min
same,E/e′,[1]; BL,15.2 ± 5.5 ratio
same,LVEDD,[1]; BL,66 ± 9 mm
same,LVESD,[1]; BL,58 ± 9 mm
same,SV (echocardiography),[1]; BL,54.3 ± 18.4 mL
same,TAPSE,[1]; BL,13.0 ± 5.9 mm
same,LVEF,"[1]; BL, Teichholz method",27.4 ± 7.4%
same,Strain,"[1]; BL, n = 13 in ghrelin group",11.9 ± 6.3%
same,CO (echocardiography),[1]; Baseline (Table 10),3.8 ± 1.5 L/min
same,E/e′,[1]; Baseline (Table 10),15.2 ± 5.5 ratio
same,LVEDD,[1]; Baseline (Table 10),66 ± 9 mm
same,LVEF,[1]; Baseline (Table 10),27.4 ± 7.4%
same,LVESD,[1]; Baseline (Table 10),58 ± 9 mm
same,SV (echocardiography),[1]; Baseline (Table 10),54.3 ± 18.4 mL
same,TAPSE,[1]; Baseline (Table 10),13.0 ± 5.9 mm
same,Strain,"[1]; Baseline (Table 10), n = 12 in ghrelin group",11.9 ± 6.3%
same,CO (echocardiography),[1]; INF + 60 min,3.9 ± 1.3 L/min
same,E/e′,[1]; INF + 60 min,17.1 ± 9.5 ratio
same,LVEDD,[1]; INF + 60 min,67 ± 9 mm
same,LVEF,[1]; INF + 60 min,29.1 ± 11.5%
same,LVESD,[1]; INF + 60 min,58 ± 11 mm
same,SV (echocardiography),[1]; INF + 60 min,56.3 ± 21.4 mL
same,TAPSE,[1]; INF + 60 min,13.1 ± 4.8 mm
same,Strain,"[1]; INF + 60 min, n = 13",13.4 ± 4.6%
same,CO (echocardiography),[1]; INF + 120 min,3.9 ± 1.4 L/min
same,E/e′,[1]; INF + 120 min,16.3 ± 8.9 ratio
same,LVEDD,[1]; INF + 120 min,67 ± 10 mm
same,LVEF,[1]; INF + 120 min,29.8 ± 11.4%
same,LVESD,[1]; INF + 120 min,57 ± 11 mm
same,SV (echocardiography),[1]; INF + 120 min,59.5 ± 25.5 mL
same,TAPSE,[1]; INF + 120 min,14.2 ± 5.4 mm
same,Strain,"[1]; INF + 120 min, n = 13",13.2 ± 5.8%
same,change in CO by echocardiography,[1]; in vivo,trends toward a difference in change of CO in favor of ghrelin; also recorded: a nominal interaction suggesting improvement with ghrelin but no significant differences in change
same,change in E/e′,[1]; in vivo,no differences in change; also recorded: no interaction with or differences in change
same,change in EF,[1]; in vivo,a trend toward a greater absolute (p=0.12) and percent change (p=0.14) in EF with ghrelin; also recorded: a nominal interaction suggesting improvement in EF with ghrelin
same,change in LVEDD,[1]; in vivo,no change or differences in change
same,change in LVESD,[1]; in vivo,no change or differences in change
same,change in SV by echocardiography,[1]; in vivo,a significant difference in change of SV in favor of ghrelin; also recorded: a significant interaction suggesting improvement with ghrelin
same,change in TAPSE,[1]; in vivo,a trend toward a greater difference in change; also recorded: a trend toward an interaction suggesting improvement in TAPSE
same,segmental strain by echocardiography,[1]; in vivo,numerical differences in favor of ghrelin but no statistical significance
same,total troponin I expression,[2],without change
same,troponin I serine 23-24 phosphorylation signal,[2],less cTnI phosphorylation (hypophosphorylation)
same,troponin I serine 23-24 phosphorylation signal,[2]; listed as ghrelin,lower compared to placebo
same,plasma acyl ghrelin,[3]; 2-5 days follow-up,normalized
same,plasma acyl ghrelin,[3]; 30 minutes after infusion,near normalized
same,median plasma acyl ghrelin concentrations,"[3]; during infusion, treatment group",quickly reached near the maximum of the assay
same,level at 0.5 h,"[3]; human, plasma, 0.1 ug/kg/min, Infusion 30 min, iv 0.1 μg/kg/min, read-out: plasma acyl ghrelin (median, interquartile range)",6.11 ng/mL
same,level at 1 h,"[3]; human, plasma, iv, 0.1 ug/kg/min, Infusion 60 min, read-out: plasma acyl ghrelin (median, interquartile range)",6.84 ng/mL
same,level at 2 h,"[3]; human, plasma, iv, 0.1 ug/kg/min, Infusion 120 min, read-out: plasma acyl ghrelin (median, interquartile range)",6.54 ng/mL
